Assay results published in patent US4599362A, “2-aryl-ethyl ether derivatives and insecticidal and acaricidal agents containing said derivatives” (priority 1980, dated 1986).
Where two headings read alike, the source gives them in different places.

How the values were obtained:
[1] = tested on: resistant green rice leafhopper (collected at Nakagawara); test: Test 3: Effect on Resistant Green Rice Leafhopper; assay type: in vivo, Nephotettix cincticeps Uhler; conditions: Nephotettix cincticeps, 24 h, read-out: Mortality (%) Green Rice Leafhopper Collected at Nakagawara
Description: (§1) To a mixture of 20 parts of the compound of the present invention and 20 parts of Sorpol SM-200 (registered trademark for the product supplied by Toho Chemical Industrial Co., Ltd.) was added 60 parts of xylol, and the mixture was sufficiently blended. The obtained emulsifiable concentrate was diluted at a predetermined concentration with distilled water, and the obtained dilution was used.
(§2) Seedlings (having 2 to 3 leaves) of paddy rice were hydroponically cultured in a pot having a diameter of 5 cm. A chemical dilution having a concentration of 100 or 20 ppm, prepared in the same manner as described in Test 1, was applied with a sprayer at a rate of 3 ml per pot. The treated seedlings were air-dried and covered with a metal net cylinder, and female adults of resistant green rice leafhopper (collected at Nakagawara) and sensitive green rice leafhopper (collected at Chigasaki) were set, respectively, free in the pot at a density of 10 adults per pot. After of 24 hours, the numbers of killed and living adults were counted and the mortality was calculated. The test was made on three pots and the average value was calculated.

[2] = tested on: sensitive green rice leafhopper (collected at Chigasaki); test: Test 3: Effect on Sensitive Green Rice Leafhopper; assay type: in vivo; conditions: Nephotettix cincticeps, female adults, 24 hours
Description: as §1, §2

[3] = Test 9: Toxicity Test (acute oral, mice); conditions: mouse, in vivo, po
Description: In the fish toxicity test, the test compound was dissolved in acetone to form a 1% solution, and a predetermined amount of the solution was used. In the mouse toxicity test, the test compound of the present invention was dissolved or suspended in corn oil, and a predetermined amount of the solution or suspension was used.
A predetermined amount of a solution or suspension of a test compound in corn oil was orally administered to male mice having a body weight of 19 to 23 g (0.2 ml per 10 g of the body weight). After 7 days, the number of killed mice was counted and the influences on the mice were examined.

two-spotted spider mite = test: Test 6: Effect on Two-Spotted Spider mite adults; assay type: in vivo; conditions: Tetranychus urticae; 500 ppm; adults; 24 hours; read-out: Mortality (%)
Description: as §1
A kidney bean leaf disc perforated with a cork borer (15 mm in diameter) was placed on water-impreganated absorbent cotton (2 cm×2 cm), and 10 adults of two-spotted spider mite were set free. A chemical dilution having a concentration of 500 ppm was applied with an applicator in an amount of 3 ml.
The leaf disc-placed absorbent cotton was placed in a thermostat chamber maintained at 25° C. After 24 hours, the number of killed adults was counted and the mortality was calculated. The test was made on three leaf discs and the average value was calculated.

[4] = tested on: Second-instar and fifth-instar larvae of tobacco cutworm; test: Test 2: Tobacco Cutworm Larva Dipping Test; assay type: in vivo
Description: as §1
A dilution having a chemical concentration of 100 or 20 ppm was prepared in the same manner as described in Test 1.
Second-instar and fifth-instar larvae of tobacco cutworm were dipped in the dilution for 5 seconds, and the excessive dilution was removed by a filter paper. Then, the larvae were set free in a plastic cup and an artificial diet was supplied thereto. The cup was allowed to stand still in a thermostat chamber maintained at 25° C. After 24 hours, the numbers of the killed and living larvae were counted and the mortality was calculated. The test was made on three cups and the result was expressed by an average value.

green peach aphids = test: Test 5: Effect on green peach Aphid; assay type: in vivo; conditions: Myzus persicae, 24 hours, mortality class, read-out: Insecticidal Activity
Description: as §1
Seedlings (having 3 to 4 leaves) of an eggplant grown on a pot were inoculated with green peach aphids and the insects were allowed to grow. The number of the insects was counted. A chemical dilution having a concentration of 100 ppm, prepared in the same manner as described in Test 1, was applied with a spray gun at a rate of 10 ml per pot. Then, the pot was placed in a glass green house. After 24 hours, the number of living insects was counted and the mortality was calculated.
The test was made on three pots, and the average value was calculated. In Table 6, mark "A" indicates a mortality higher than 95%, mark "B" indicates a mortality of 80 to 95%, mark "C" indicates a mortality of 50 to 80%, and mark "D" indicates a mortality lower than 50%.

[5] = tested on: third-instar larvae of diamond back moth; test: Test 4: Effect on Diamond Back Moth; assay type: in vivo; conditions: Plutella xylostella, 24 hours
Description: as §1
Cabbage leaves were spread in a plastic cup, and 10 third-instar larvae of diamond back moth were set free in the cup.
A chemical dilution having a concentration of 100 or 20 ppm, prepared in the same manner as described in Test 1, was applied from an applicator at a rate of 3 ml per cup.
After scattering of the chemical dilution, the cup was covered, and after 24 hours, the numbers of killed and living larvae were counted and the mortality was calculated. The test was made on three cups and the average value was calculated.

German cockroach = test: Test 7: Effect on German Cockroach; assay type: in vivo; conditions: Blattella germanica, male adults, 24 hours, agonized and killed; for mortality at 10 mg/m2: 10 mg/m^2; for mortality at 50 mg/m2: 50 mg/m^2
Description: The bottom face of a high Petri dish having a diameter of 9 cm and a height of 9 cm was treated with 50 or 10 mg/m^2 of a test compound and the dish was air-dried. In order to prevent the adults from escaping from the dish, the inner wall of the dish was treated with butter. Then, 10 male adults of German cockroach were set free in each dish, and the dish was placed in a thermostat chamber maintained at 25° C. After 24 hours, the number of agonized and killed adults was counted. The test was made on two dishes and the average value was calculated.

[6] = 20 ppm, second-instar larvae, 24 hours, read-out: Mortality (%) Second-Instar Larvae
[7] = 100 ppm, second-instar larvae, 24 hours, read-out: Mortality (%) Second-Instar Larvae
[8] = topical, 24 h, read-out: Mortality (%) Fifth-Instar Larvae

Row | SMILES | mortality at 20 ppm [1] [%] | mortality at 100 ppm [1] [%] | mortality at 20 ppm [2] [%] | mortality at 100 ppm [2] [%] | LD50 at 168 h [3] [mg/kg] | mortality at 500 ppm (two-spotted spider mite) [%] | mortality at 20 ppm [4, 6] [%] | mortality at 100 ppm [4, 7] [%] | mortality at 20 ppm [4, 8] [%] | mortality at 100 ppm [4, 8] [%] | mortality at 100 ppm (green peach aphids) [%] | mortality at 20 ppm [5] [%] | mortality at 100 ppm [5] [%] | mortality at 10 mg/m2 (German cockroach) [%] | mortality at 50 mg/m2 (German cockroach) [%]
1 | COc1ccc(Oc2cc(COCC(C)(C)c3ccc(Cl)cc3)ccc2F)cc1 [Compound 13, 3-(4-Methoxyphenoxy)-4-fluorobenzyl 2-(4-chlorophenyl)-2-methylpropyl ether] | 70 | 100 | 50 | 100 | > 500 | – | – | – | – | – | – | – | – | – | –
2 | CC(C)(COCc1ccc(F)c(Oc2ccccc2)c1)c1ccc(OC(F)F)cc1 [Compound 21, 3-Phenoxy-4-fluorobenzyl 2-(4-difluoromethoxyphenyl)-2-methylpropyl ether] | 100 | 100 | 100 | 100 | – | 100 | 100 | 100 | 100 | 100 | > 95 | 100 | 100 | 100 | 100
3 | CC(C)C(C)(COCc1ccc(F)c(Oc2ccccc2)c1)c1ccc(Cl)cc1 (stereo not shown) [Compound 25, 3-phenoxy-4-fluorobenzyl 2-(4-chlorophenyl)-2,3-dimethylbutyl ether] | – | – | – | – | – | – | – | – | – | – | 80 to 95 | – | – | – | –
4 | CC(C)(COCc1ccc(F)c(Oc2ccccc2)c1)c1ccc(F)cc1 [Compound 29, 3-Phenoxy-4-fluorobenzyl 2-(4-fluorophenyl)-2-methylpropyl ether] | 100 | 100 | 100 | 100 | > 500 | 100 | 100 | 100 | 100 | 100 | – | 100 | 100 | 100 | 100
5 | CCC(COCc1ccc(F)c(Oc2cccc(Cl)c2)c1)c1ccc(Cl)cc1 (stereo not shown) [Compound 34, 3-(3-Chlorophenoxy)-4-fluorobenzyl 2-(4-chlorophenyl)-butyl ether] | – | – | – | – | – | – | – | – | – | – | 80 to 95 | – | – | – | –
6 | CCC(CC)(COCc1ccc(F)c(Oc2ccccc2)c1)c1ccc(Cl)cc1 [Compound 35, 3-Phenoxy-4-fluorobenzyl 2-(4-chlorophenyl)-2-ethylbutyl ether] | 100 | 100 | 90 | 100 | > 500 | – | – | – | – | – | – | – | – | – | –
7 | CCOCCOc1ccc(C(C)(C)COCc2ccc(F)c(Oc3ccccc3)c2)cc1 [Compound 39] | – | – | – | – | > 500 | 100 | – | – | – | – | – | – | – | – | –
8 | CC(C)Oc1ccc(C(C)(C)COCc2ccc(F)c(Oc3ccccc3)c2)cc1 [Compound 41] | 100 | 100 | 100 | 100 | – | 90 | 100 | 100 | 100 | 100 | > 95 | 100 | 100 | 100 | 100
9 | CCSc1ccc(C(C)(C)COCc2ccc(F)c(Oc3ccccc3)c2)cc1 [Compound 42, 3-Phenoxy-4-fluorobenzyl 2-(4-ethylthiophenyl)-2-methylpropyl ether] | – | – | – | – | – | 100 | – | – | – | – | > 95 | 100 | 100 | – | –
10 | CCOc1ccc(C(C)COCc2ccc(F)c(Oc3ccccc3)c2)cc1 (stereo not shown) [Compound 43] | 100 | 100 | 100 | 100 | – | – | – | – | – | – | > 95 | – | – | 100 | 100
11 | Cc1ccc2cc(C(C)(C)COCc3ccc(F)c(Oc4ccccc4)c3)ccc2c1 [Compound 44, 3-Phenoxy-4-fluorobenzyl 2-(6-methyl-2-naphthyl)-2-methylpropyl ether] | 100 | 100 | 100 | 100 | – | 95 | – | – | – | – | > 95 | – | – | 100 | 100
12 | CC(C)COc1ccc(C(C)(C)COCc2ccc(F)c(Oc3ccccc3)c2)cc1 [Compound 45] | 100 | 100 | 100 | 100 | – | – | – | – | – | – | > 95 | 80 | 100 | 90 | 100
13 | COc1ccc(C(C)(C)COCc2ccc(F)c(Oc3ccccc3)c2)cc1OC [Compound 56] | – | – | – | – | > 500 | 100 | – | – | – | – | – | – | – | – | –
14 | CCOc1ccc(C(C)(C)COCc2ccc(F)c(Oc3ccccc3)c2)cc1Cl [Compound 59] | 100 | 100 | 100 | 100 | > 500 | – | 100 | 100 | 100 | 100 | – | 100 | 100 | 100 | 100
15 | CCOc1ccc(C(C)(C)COCc2ccc(F)c(Oc3ccccc3)c2)cc1OC [Compound 64] | 100 | 100 | 100 | 100 | – | 100 | – | – | – | – | > 95 | – | – | 100 | 100
16 | CCOc1ccc(C(C)(C)COCc2ccc(F)c(Oc3ccccc3)c2)cc1C [Compound 67] | 100 | 100 | 100 | 100 | – | 100 | 100 | 100 | 100 | 100 | > 95 | 100 | 100 | 100 | 100
